Results as given in patent US10844049B2, “GLP-1R agonists and uses thereof” (QILU REGOR THERAPEUTICS INC., priority 2018, dated 2020).

What was measured:
GLP1R [1] = biological target: T1, GLP1R (Homo sapiens, UniProt P43220); assay: GLP1R cAMP HTRF assay, HEK293/GLP-1R/CRE/Luc (HEK293T cells); format: cell-based
Summary of the method: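 cAMP accumulation via HTRF after 30 min, 37 °C exposure of 1000 receptor-expressing cells/well to compound (0.5% DMSO final) in IBMX (500 μM)/0.1% BSA DPBS.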

GLP1R [2] = biological target: T1, GLP1R; assay: GLP1R cAMP assay, CHO cells stably expressing human GLP-1R; format: cell-based
Experimental: GLP-1R-mediated agonist activity was determined with a cell-based functional assay utilizing an HTRF (Homogeneous Time-Resolved Fluorescence) cAMP detection kit (cAMP Dynamic 2 Assay Kit; CisBio cat #62AM4PEC) that measures cAMP levels in the cell. The method is a competitive immunoassay between native cAMP produced by the cells and exogenous cAMP labeled with the dye d2. The tracer binding is visualized by a mAb anti-cAMP labeled with Cryptate. The specific signal (i.e., energy transfer) is inversely proportional to the concentration of cAMP in either standard or experimental sample.
Varying concentrations of each compound to be tested (in DMSO) were diluted in DMSO to obtain 200× compound working solution first and then 50 nl compounds were added to a white 384-well assay plate (Greiner 784075) with ECHO. The final DMSO concentration was 0.5%. The compound concentration range may be adjusted at any time.
Cells were removed from cryopreservation, re-suspended in 5 mL of Dulbecco's Phosphate Buffered Saline (DPBS-Sigma Cat # D8537) and centrifuged at 900 g for 5 min at 22° C. The cell pellet was then re-suspended in 1 mL of assay buffer [DPBS with 500 μM IBMX (Sigma #15879) and 0.1% BSA (Sigma # A1933). IBMX and BSA were freshly added on the day of assay]. A 10 μL sample of the cell suspension was counted on an Invitrogen Countess II to determine cell viability and cell count per mL. The remaining cell suspension was then adjusted with assay buffer to deliver 1000 viable cells per well using a Matrix Combi Multidrop reagent dispenser. 10 μL cell suspensions were added to each well of the assay plate which already contains compound. The plate was sealed and incubated at 37° C. with 5% CO2 for 30 minutes.
Following the 30 minute incubation, 5 μL of labeled d2 cAMP and 5 μL of anti-cAMP antibody (both diluted 1:20 in cell lysis buffer; as described in the manufacturer's assay protocol) were added to each well of the assay plate. The plates w ere then incubated at room temperature and after 60 minutes, changes in the HTRF signal were read with an Envision multi-label plate reader using excitation of 330 nm and emissions of 615 and 665 nm. Raw data were converted to nM cAMP by interpolation from a cAMP standard curve (as described in the manufacturer's assay protocol) and the percent effect was determined relative to a saturating concentration of the full agonist GLP-17-37 (10 nM) included on each plate. EC50 determinations were made from agonist dose-response curves analyzed with a curve fitting program using a 4-parameter logistic dose response equation. […]

[3] = mean ± spread, read-out: HEK293T cells EC50
[4] = CHO cells, mean ± spread, read-out: CHO cells EC50
[5] = CHO cells stably expressing GLP-1R, read-out: CHO cAMP stable EC50

T1 sequence (P43220 24-463): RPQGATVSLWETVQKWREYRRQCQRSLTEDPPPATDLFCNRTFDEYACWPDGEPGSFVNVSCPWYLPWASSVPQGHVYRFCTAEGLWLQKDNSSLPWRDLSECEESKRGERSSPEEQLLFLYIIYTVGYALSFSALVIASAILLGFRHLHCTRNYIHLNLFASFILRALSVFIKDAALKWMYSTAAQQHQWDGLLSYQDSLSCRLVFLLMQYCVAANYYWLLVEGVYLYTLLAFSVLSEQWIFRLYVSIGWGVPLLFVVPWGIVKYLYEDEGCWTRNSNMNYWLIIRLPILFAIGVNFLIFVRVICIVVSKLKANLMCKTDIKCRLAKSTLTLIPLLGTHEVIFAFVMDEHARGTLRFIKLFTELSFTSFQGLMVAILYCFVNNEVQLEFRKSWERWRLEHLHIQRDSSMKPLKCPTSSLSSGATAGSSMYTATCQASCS

SMILES | EC50 (GLP1R [1]; [3]) [nM] | EC50 (GLP1R [2]; [4]) [nM] | EC50 (GLP1R [1]; read-out: EC50) [nM] | EC50 (GLP1R [2]; [5]) [nM]
N#Cc1ccc(COc2nc(C3CCN(Cc4nc5ccc(C(=O)O)cc5n4C[C@@H]4CCO4)CC3)ccc2F)c(F)c1 [reference compound] | 5.65 | 463 |  | 
O=C(O)c1ccc2nc(CN3CC=C(c4cccc(OCc5ccc(Cl)cc5F)n4)CC3)n(C[C@@H]3CCO3)c2c1 [drawing 65] | 0.393 | 3.28 |  | 
N#Cc1ccc(COc2cccc(C3=CCN(Cc4nc5ccc(C(=O)O)cc5n4C[C@@H]4CCO4)CC3)n2)c(F)c1 [drawing 55] | 0.219 | 2.25 |  | 
O=C(O)c1ccc2nc(CN3CCC(c4cncc(OCc5ccc(Cl)cc5F)n4)CC3)n(C[C@@H]3CCO3)c2c1 [drawing 60, reference compound] | 10.5 | 289 ± 53 |  | 
N#Cc1ccc(COc2nc(C3=CCN(Cc4nc5ccc(C(=O)O)cc5n4C[C@@H]4CCO4)CC3)ccc2F)c(F)c1 [drawing 57] | 0.517 | 6.05 |  | 
O=C(O)c1ccc2nc(CN3CCC(c4cccc(OCc5ccc(Cl)cc5F)n4)CC3)n(C[C@@H]3CCO3)c2c1 [reference compound] | 0.412 | 7.65 |  | 
O=C(O)c1ccc2nc(CN3CC=C(c4cccc(OCc5ccc(Cl)cc5F)c4)CC3)n(C[C@@H]3CCO3)c2c1 [drawing 67] | 3.94 | 42.6 ± 11.5 |  | 
O=C(O)c1ccc2nc(CN3CC=C(c4cccc(OCc5cccc(Cl)c5)n4)CC3)n(C[C@@H]3CCO3)c2c1 [Compound 137, (S)-2-((6-((3-chlorobenzyl)oxy)-3′,6′-dihydro-[2,4′-bipyridin]-1′(2′H)-yl)methyl)-1-(oxetan-2-ylmethyl)-1H-benzo[d]imidazole-6-carboxylic add] |  |  | ≤ 1000 | 
O=C(O)c1ccc2nc(CN3CC=C(c4cccc(OCc5ccc(-n6ccnn6)cc5)n4)CC3)n(C[C@@H]3CCO3)c2c1 [Compound 244, (S)-2-((6-((4-(1H-1,2,3-triazol-1-yl)benzyl)oxy)-3′,6′-dihydro-[2,4′-bipyridin]-1′(2′H)-yl)methyl)-1-(oxetan-2-ylmethyl)-1H-benzo[d]imidazole-6-carboxylic add] |  |  | ≤ 15 | 
O=C(O)c1ccc2nc(CN3CC=C(c4cccc(OCc5ccc(Cl)cc5F)n4)CC3)n(Cc3ncco3)c2c1 [Compound 72, 2-((6-((4-chloro-2-fluorobenzyl)oxy)-3′,6′-dihydro-[2,4′-bipyridin]-1′(2′H)-yl)methyl)-1-(oxazol-2-ylmethyl)-1H-benzo[d]imidazole-6-carboxyli acid] |  |  | ≤ 15 | 

Results, then the molecule that gave them:

EC50 (GLP1R [1]; [3]) [nM] | EC50 (GLP1R [2]; [4]) [nM] | EC50 (GLP1R [1]; read-out: EC50) [nM] | EC50 (GLP1R [2]; [5]) [nM] | SMILES
8.58 | 105 ± 32.7 |  |  | O=C(O)c1ccc2nc(CN3CCC(c4cccc(OCc5ccc(Cl)cc5F)c4)CC3)n(C[C@@H]3CCO3)c2c1 [drawing 66, reference compound]
0.3 | 3.5 |  |  | N#Cc1ccc(COc2cccc(C3CCN(Cc4nc5ccc(C(=O)O)nc5n4C[C@@H]4CCO4)CC3)n2)c(F)c1 [reference compound]
1.8 | 73.7 |  |  | O=C(O)c1ccc2nc(CN3CC=C(c4ccnc(OCc5ccc(Cl)cc5F)n4)CC3)n(C[C@@H]3CCO3)c2c1 [drawing 59]
 |  | ≤ 15 | ≤ 150 | N#Cc1ccc(COc2cccc(N3CCC(Cc4nc5ccc(C(=O)O)nc5n4C[C@@H]4CCO4)CC3)n2)c(F)c1 [Compound 227, (S)-2-((l-(6-((4-cyano-2-fluorobenzyl)oxy)pyridin-2-yl)piperidin-4-yl)methyl)-3-(oxetan-2-ylmethyl)-3H-imidazo[4,5-b]pyridine-5-carboxylic acid]
 |  | ≤ 15 | ≤ 150 | N#Cc1ccc(COc2cccc(N3CCC(Cc4nc5ccc(C(=O)O)c(F)c5n4C[C@@H]4CCO4)CC3)n2)c(F)c1 [Compound 228, (S)-2-((l-(6-((4-cyano-2-fluorobenzyl)oxy)pyridin-2-yl)piperidin-4-yl)methyl)-7-fluoro-1-(oxetan-2-ylmethyl)-1H-benzo[d]imidazole-6-carboxylic acid]
0.168 | 3.86 |  |  | N#Cc1ccc(COc2cccc(C3=CCN(Cc4nc5ccc(C(=O)O)nc5n4C[C@@H]4CCO4)CC3)n2)c(F)c1 [drawing 69]
15.9 | 924 ± 230 |  |  | N#Cc1ccc(COc2cncc(C3CCN(Cc4nc5ccc(C(=O)O)cc5n4C[C@@H]4CCO4)CC3)n2)c(F)c1 [drawing 62, reference compound]
9.85 | 260 ± 38 |  |  | N#Cc1ccc(COc2cncc(C3=CCN(Cc4nc5ccc(C(=O)O)cc5n4C[C@@H]4CCO4)CC3)n2)c(F)c1 [drawing 63]
2.94 | 136 ± 32.6 |  |  | O=C(O)c1ccc2nc(CN3CC=C(c4cncc(OCc5ccc(Cl)cc5F)n4)CC3)n(C[C@@H]3CCO3)c2c1 [drawing 61]
1.98 | 95.8 |  |  | O=C(O)c1ccc2nc(CN3CCC(c4ccnc(OCc5ccc(Cl)cc5F)n4)CC3)n(C[C@@H]3CCO3)c2c1 [drawing 58, reference compound]
 |  | > 1000 |  | O=C(O)c1ccc2nc(CN3CC=C(c4cc5nc[nH]c5c(OCc5ccc(Cl)cc5F)n4)CC3)n(C[C@@H]3CCO3)c2c1 [Compound 58, (S)-2-((4-(4-((4-chloro-2-fluorobenzyl)oxy)-3H-imidazo[4,5-c]pyridin-6-yl)-3,6-dihydropyridin-1(2H)-yl)methyl)-1-(oxetan-2-ylmethyl)-1H-benzo[d]imidazole-6-carboxylic acid]
 |  | ≤ 15 |  | O=C(O)c1ccc2nc(CN3CC=C(c4cccc(OCc5ccc6c(c5)OC(F)(F)O6)n4)CC3)n(C[C@@H]3CCO3)c2c1 [Compound 153, (S)-2-((6-((2,2-difluorobenzo[d][1,3]dioxol-5-yl)methoxy)-3′,6′-dihydro-[2,4′-bipyridin]-1′(2′H)-yl)methyl)-1-(oxetan-2-ylmethyl)-1H-benzo[d]imidazole-6-carboxylic acid]
 |  | ≤ 15 |  | C#Cc1ccc(COc2cccc(C3=CCN(Cc4nc5ccc(C(=O)O)cc5n4C[C@@H]4CCO4)CC3)n2)c(F)c1 [Compound 68, (S)-2-((6-((4-ethynyl-2-fluorobenzyl)oxy)-3‘f’-dihydro-[2,4′-bipyridin]-1′(2′H)-yl)methyl)-1-(oxetan-2-ylmethyl)-1H-benzo[d]imidazole-6-carboxylic acid]
